Where two headings read alike, the source gives them in different places.
Assays:
DOR [1] = biological target: T1, DOR (Homo sapiens, UniProt P41143); assay: Radioligand binding at DOR
KOR [2] = biological target: T2, KOR (Homo sapiens, UniProt P41145); assay: biochemical; format: binding; conditions: for Ki: KOR, [3H]U69593, mean ± SEM, N = 2–4
MOR [3] = biological target: T3, MOR (Homo sapiens, UniProt P35372); assay: biochemical; format: binding; conditions: for MOR, inhibition of radioligand binding at 10 μM (class): Table 2
rat kidney TSPO = rat kidney TSPO (Rattus norvegicus, UniProt P16257); assay: Radioligand binding at TSPO; conditions: for Ki: TSPO, rat TSPO, [3H]PK11195
hA3AR = biological target: T4, hA3AR (Homo sapiens, UniProt P0DMS8); assay: A3AR binding
T4 sequence (P0DMS8 1-318): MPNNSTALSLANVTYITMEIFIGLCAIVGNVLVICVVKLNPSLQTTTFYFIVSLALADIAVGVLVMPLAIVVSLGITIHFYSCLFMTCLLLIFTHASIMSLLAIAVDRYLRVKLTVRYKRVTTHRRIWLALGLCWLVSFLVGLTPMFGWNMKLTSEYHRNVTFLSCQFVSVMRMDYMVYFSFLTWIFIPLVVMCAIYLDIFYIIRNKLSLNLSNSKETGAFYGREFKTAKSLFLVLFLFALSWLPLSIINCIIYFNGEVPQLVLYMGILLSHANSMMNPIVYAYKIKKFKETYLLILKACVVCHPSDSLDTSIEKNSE

hA1AR = biological target: T5, hA1AR (Homo sapiens, UniProt P30542); assay: hA1AR binding; conditions: for inhibition at 10 µM: read-out: binding inhibition at hA1AR (% at 10 μM)
T5 sequence (P30542 1-326): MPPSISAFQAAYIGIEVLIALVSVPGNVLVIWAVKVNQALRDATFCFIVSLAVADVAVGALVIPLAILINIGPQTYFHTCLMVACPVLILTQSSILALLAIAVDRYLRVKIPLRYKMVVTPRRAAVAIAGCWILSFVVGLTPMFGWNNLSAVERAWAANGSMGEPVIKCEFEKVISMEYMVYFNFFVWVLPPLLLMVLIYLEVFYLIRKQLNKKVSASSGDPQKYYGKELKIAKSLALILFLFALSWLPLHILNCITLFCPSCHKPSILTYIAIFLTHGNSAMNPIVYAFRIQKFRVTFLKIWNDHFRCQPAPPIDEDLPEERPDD

rat σ2 receptor = biological target: T6, rat σ2 receptor (Rattus norvegicus, UniProt Q5U3Y7); assay: PDSP binding, σ2 receptor
T6 sequence (Q5U3Y7 1-176): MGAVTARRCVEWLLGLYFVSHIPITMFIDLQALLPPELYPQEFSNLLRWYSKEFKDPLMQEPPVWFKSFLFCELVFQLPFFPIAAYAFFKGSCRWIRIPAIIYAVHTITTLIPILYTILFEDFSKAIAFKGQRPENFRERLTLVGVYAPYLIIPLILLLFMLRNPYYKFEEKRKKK

hDAT = hDAT (Homo sapiens, UniProt Q01959); assay: Radioligand binding at DAT; conditions: for DAT, inhibition, % of control at 10 μM: [3H]WIN35428, negative = enhanced radioligand binding
hA2AAR = hA2AAR (Homo sapiens, UniProt P29274); assay: hA2AAR binding; conditions: read-out: binding inhibition at hA2AAR (% at 10 μM)
KOR [4] = biological target: T2, KOR; format: cell-based
hNOP = hNOP (Homo sapiens, UniProt P41146); assay: Radioligand binding at NOP
DOR [5] = biological target: T1, DOR; assay: β-arrestin-recruitment TANGO assay at DOR; format: cell-based; conditions: 10 μM; for DOR Antag (%): vs naloxone 121 = 100% inhibition; for DOR Ag (%): vs standard agonist = 100%
KOR [6] = biological target: T2, KOR; assay: β-arrestin-recruitment TANGO assay at KOR; format: cell-based; conditions: 10 μM; vs naloxone 121 = 100% inhibition; agonist 109 (3 nM)
MOR [7] = biological target: T3, MOR; assay: β-arrestin-recruitment TANGO assay at MOR; format: cell-based; conditions: 10 μM; for MOR Antag (%): vs naloxone 121 = 100% inhibition, agonist 99 (300 nM); for MOR Ag (%): vs standard agonist = 100%

hDAT, sequence (Q01959 whole entry): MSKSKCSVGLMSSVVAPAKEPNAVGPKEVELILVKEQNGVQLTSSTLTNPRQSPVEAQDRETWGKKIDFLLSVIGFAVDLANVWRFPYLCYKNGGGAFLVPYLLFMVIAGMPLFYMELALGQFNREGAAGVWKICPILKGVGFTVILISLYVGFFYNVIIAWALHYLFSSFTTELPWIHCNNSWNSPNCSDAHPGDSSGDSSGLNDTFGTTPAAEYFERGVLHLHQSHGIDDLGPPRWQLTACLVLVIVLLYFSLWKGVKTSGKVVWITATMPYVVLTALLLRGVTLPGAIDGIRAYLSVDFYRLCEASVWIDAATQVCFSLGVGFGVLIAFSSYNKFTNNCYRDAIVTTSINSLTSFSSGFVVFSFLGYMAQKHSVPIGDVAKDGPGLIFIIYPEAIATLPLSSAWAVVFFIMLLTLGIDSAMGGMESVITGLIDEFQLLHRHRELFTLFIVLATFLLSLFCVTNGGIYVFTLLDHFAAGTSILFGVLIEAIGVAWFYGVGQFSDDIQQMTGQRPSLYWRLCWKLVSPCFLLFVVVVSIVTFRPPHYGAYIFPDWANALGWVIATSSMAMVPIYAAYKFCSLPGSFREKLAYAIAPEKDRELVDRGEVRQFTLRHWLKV
rat kidney TSPO, sequence (P16257 whole entry): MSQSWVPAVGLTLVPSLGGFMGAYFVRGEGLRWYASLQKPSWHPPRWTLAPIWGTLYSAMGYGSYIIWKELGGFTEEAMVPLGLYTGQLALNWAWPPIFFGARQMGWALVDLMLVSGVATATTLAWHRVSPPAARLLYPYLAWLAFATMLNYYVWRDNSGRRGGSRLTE
hNOP, sequence (P41146 whole entry): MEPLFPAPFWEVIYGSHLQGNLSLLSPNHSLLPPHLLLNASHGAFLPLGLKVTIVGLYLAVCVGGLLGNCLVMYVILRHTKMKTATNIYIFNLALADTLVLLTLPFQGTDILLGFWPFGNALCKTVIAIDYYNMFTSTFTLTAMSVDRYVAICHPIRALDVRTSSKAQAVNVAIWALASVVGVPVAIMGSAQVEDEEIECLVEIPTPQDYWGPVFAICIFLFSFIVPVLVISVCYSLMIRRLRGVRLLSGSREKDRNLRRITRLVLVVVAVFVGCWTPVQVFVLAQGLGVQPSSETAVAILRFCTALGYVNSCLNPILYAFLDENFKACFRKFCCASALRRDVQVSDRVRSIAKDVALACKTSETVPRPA
T1 sequence (P41143 whole entry): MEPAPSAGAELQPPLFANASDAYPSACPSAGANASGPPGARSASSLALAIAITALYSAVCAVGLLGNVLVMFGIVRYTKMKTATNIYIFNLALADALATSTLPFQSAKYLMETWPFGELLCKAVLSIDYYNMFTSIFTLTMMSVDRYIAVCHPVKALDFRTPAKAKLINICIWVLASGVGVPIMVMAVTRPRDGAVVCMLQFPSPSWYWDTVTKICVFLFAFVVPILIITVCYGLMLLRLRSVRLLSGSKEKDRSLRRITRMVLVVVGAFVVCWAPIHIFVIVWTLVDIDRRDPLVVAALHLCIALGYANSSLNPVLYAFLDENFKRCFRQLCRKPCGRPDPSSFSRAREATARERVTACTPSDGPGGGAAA
T2 sequence (P41145 whole entry): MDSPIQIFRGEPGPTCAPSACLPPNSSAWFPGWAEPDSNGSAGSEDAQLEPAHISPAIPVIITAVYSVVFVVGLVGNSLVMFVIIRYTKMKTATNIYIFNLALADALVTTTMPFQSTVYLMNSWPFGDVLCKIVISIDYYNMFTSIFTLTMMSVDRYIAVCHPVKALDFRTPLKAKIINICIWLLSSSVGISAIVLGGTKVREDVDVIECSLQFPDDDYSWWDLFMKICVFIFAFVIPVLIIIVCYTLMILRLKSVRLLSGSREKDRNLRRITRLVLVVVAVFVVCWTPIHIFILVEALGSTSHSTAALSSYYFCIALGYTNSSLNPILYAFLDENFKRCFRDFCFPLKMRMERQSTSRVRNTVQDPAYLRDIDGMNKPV
T3 sequence (P35372 whole entry): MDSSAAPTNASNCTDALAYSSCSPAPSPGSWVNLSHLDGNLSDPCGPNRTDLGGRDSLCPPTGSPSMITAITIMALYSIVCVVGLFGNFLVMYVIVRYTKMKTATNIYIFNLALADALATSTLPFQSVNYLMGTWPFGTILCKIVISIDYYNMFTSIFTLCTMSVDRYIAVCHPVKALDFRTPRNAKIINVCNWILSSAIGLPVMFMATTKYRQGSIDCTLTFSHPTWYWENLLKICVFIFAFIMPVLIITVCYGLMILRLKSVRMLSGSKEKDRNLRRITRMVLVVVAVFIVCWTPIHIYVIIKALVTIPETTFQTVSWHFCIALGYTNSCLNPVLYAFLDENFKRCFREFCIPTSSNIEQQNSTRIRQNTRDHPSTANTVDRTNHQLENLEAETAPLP
hA2AAR, sequence (P29274 whole entry): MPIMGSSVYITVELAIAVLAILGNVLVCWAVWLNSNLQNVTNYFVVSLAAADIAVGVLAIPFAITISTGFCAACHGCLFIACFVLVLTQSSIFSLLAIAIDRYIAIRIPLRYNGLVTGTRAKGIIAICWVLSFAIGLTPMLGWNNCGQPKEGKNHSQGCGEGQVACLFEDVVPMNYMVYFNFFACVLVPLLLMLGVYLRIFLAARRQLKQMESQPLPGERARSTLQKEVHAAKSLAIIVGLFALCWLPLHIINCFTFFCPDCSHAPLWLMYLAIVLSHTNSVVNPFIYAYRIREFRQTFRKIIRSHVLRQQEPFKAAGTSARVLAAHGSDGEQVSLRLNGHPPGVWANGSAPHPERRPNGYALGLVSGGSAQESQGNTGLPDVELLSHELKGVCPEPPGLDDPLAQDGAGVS

Ki (DOR [1]) [µM] | Ki (MOR [3]) [µM] | Ki (rat kidney TSPO) [µM] | Ki (hA3AR) [µM] | Ki (KOR [2]) [µM] | DAT, inhibition, % of control at 10 μM (hDAT) | inhibition at 10 µM (hA1AR) [%] | Compound | further results
2.55 ± 0.66 | 1.44 ± 0.75 | 4.21 ± 1.84 | 0.178 ± 0.032 | – | – | – | O[C@@H]1[C@H](O)[C@@H]2C[C@@H]2[C@H]1n1ccc2c(NC(C3CC3)C3CC3)nc(C#Cc3ccccc3)nc21 [compound 56, (1R,2R,3S,4R,5S)-4-(4-((Dicyclopropylmethyl)amino)-2-(phenylethynyl)-7H-pyrrolo[2,3-d]pyrimidin-7-yl)bicyclo[3.1.0]hexane-2,3-diol] | KOR, inhibition of radioligand binding at 10 μM (class) (KOR [2]; Table 5, 10 μM): ^d (30–50% inhibition of radioligand binding at 10 μM); Ki (hA1AR): 0.65 µM; Ki (rat σ2 receptor): 0.67 µM
1.78 ± 0.41 | 1.48 ± 0.45 | > 10 | 0.344 ± 0.04 | 0.0915 ± 0.0237 | –66% | 35 | CCOC(=O)[C@@]12C[C@@H]1[C@@H](n1ccc3c(NC)nc(C#Cc4ccccc4)nc31)[C@H](O)[C@@H]2O [compound 40, Ethyl(1S,2R,3S,4R,5S)-2,3-dihydroxy-4-(4-(methylamino)-2-(phenylethynyl)-7H-pyrrolo[2,3-d]pyrimidin-7-yl)bicyclo[3.1.0]hexane-1-carboxylate] | inhibition at 10 µM (hA2AAR): 22%; βarrestin2 recruitment, Imax (% 120) (KOR [4]; antagonism of 1 μM U69593 98): 76 ± 2 % 120
– | – | 0.877 ± 0.368 | – | – | 7% | – | O[C@@H]1[C@H](O)[C@@H]2C[C@@H]2[C@H]1n1cnc2c(NCCc3ccccc3)nc(C#Cc3ccccc3Cl)nc21 [compound 52] | DOR, inhibition of radioligand binding at 10 μM (class) (DOR [1]; Table 4): ^f (30–50% inhibition of radioligand binding at 10 μM); Ki (rat σ2 receptor): 1.82 µM
– | 1.3 ± 0.53 | 4.47 ± 1.33 | 0.791 ± 0.433 | 1.4 ± 0.21 | –13% | 34 | CCOC(=O)[C@@]12C[C@@H]1[C@@H](n1ccc3c(NCC4CC4)nc(C#Cc4ccccc4)nc31)[C@H](O)[C@@H]2O [compound 42, Ethyl(1S,2R,3S,4R,5S)-4-(4-((cyclopropylmethyl)amino)-2-(phenylethynyl)-7H-pyrrolo[2,3-d]pyrimidin-7-yl)-2,3-dihydroxybicyclo[3.1.0]hexane-1-carboxylate] | DOR, inhibition of radioligand binding at 10 μM (class) (DOR [1]; Table 2): ^c (30–50% inhibition of radioligand binding at 10 μM); inhibition at 10 µM (hA2AAR): 20%; Ki (rat σ2 receptor): 1.11 µM
– | – | ~0.3 | – | – | 21% | 22 | CNC(=O)[C@@]12C[C@@H]1[C@@H](n1cnc3c(NCc4cccc(Cl)c4)nc(C#Cc4ccc(F)cc4)nc31)[C@H](O)[C@@H]2O [compound 7] | –
– | – | – | – | – | 24% | – | O[C@@H]1[C@H](O)[C@@H]2C[C@@H]2[C@H]1n1cnc2c(NCCc3ccccc3)nc(C#Cc3ccccc3)nc21 [compound 51] | DOR, inhibition of radioligand binding at 10 μM (class) (DOR [1]; Table 4): ^g (<30% inhibition of radioligand binding at 10 μM); TSPO, inhibition of radioligand binding at 10 μM (class) (rat kidney TSPO; Table 4): ^g (<30% inhibition of radioligand binding at 10 μM); Ki (rat σ2 receptor): 1.48 µM
2.48 ± 0.79 | – | ~0.3 | – | – | 16% | – | CNC(=O)[C@@]12C[C@@H]1[C@@H](n1cnc3c(NCc4cccc(Cl)c4)nc(C#Cc4ccc(F)c(F)c4)nc31)[C@H](O)[C@@H]2O [compound 4] | Ki (hNOP): 4.56 ± 0.45 µM; DOR Antag (%) (DOR [5]): 25.3%; DOR Ag (%) (DOR [5]): –10.3%; KOR Antag (%) (KOR [6]): 125%; MOR Antag (%) (MOR [7]): 18.8%; MOR Ag (%) (MOR [7]): –1.6%

Further lines, the compound ahead of its results:

Compound | Ki (DOR [1]) [µM] | Ki (MOR [3]) [µM] | Ki (rat kidney TSPO) [µM] | Ki (hA3AR) [µM] | Ki (KOR [2]) [µM] | DAT, inhibition, % of control at 10 μM (hDAT) | inhibition at 10 µM (hA1AR) [%] | further results
CCOC(=O)[C@@]12C[C@@H]1[C@@H](n1cnc3c(NC)nc(C#Cc4ccc(Br)s4)nc31)[C@H](O)[C@@H]2O [compound 25] | – | – | 1.52 ± 0.25 | – | 0.975 ± 0.198 | –430% | – | DOR, inhibition of radioligand binding at 10 μM (class) (DOR [1]; Table 2): ^c (30–50% inhibition of radioligand binding at 10 μM); MOR, inhibition of radioligand binding at 10 μM (class) (MOR [3]): ^c (30–50% inhibition of radioligand binding at 10 μM); Ki (hNOP): > 10 µM; DOR Antag (%) (DOR [5]): –6.0%; DOR Ag (%) (DOR [5]): –1.7%; KOR Antag (%) (KOR [6]): 88.1%; MOR Antag (%) (MOR [7]): 22.6%; MOR Ag (%) (MOR [7]): –1.2%
CCOC(=O)[C@@]12C[C@@H]1[C@@H](n1ccc3c(NC)nc(C#Cc4ccc(Br)s4)nc31)[C@H](O)[C@@H]2O [compound 29, Ethyl(1S,2R,3S,4R,5S)-4-(2-((5-bromothiophen-2-yl)ethynyl)-4-(methylamino)-7H-pyrrolo[2,3-d]pyrimidin-7-yl)-2,3-dihydroxybicyclo[3.1.0]hexane-1-carboxylate] | 0.437 ± 0.094 | 0.368 ± 0.135 | 0.765 ± 0.118 | 0.466 ± 0.02 | 0.039 ± 0.001 | –102 ± 8 (3) % | – | preference for KOR in comparison to DOR (KOR [2]; ratio of Ki): 11 fold; preference for KOR in comparison to MOR (KOR [2]; ratio of Ki): 9 fold; preference for KOR in comparison to TSPO (KOR [2]; ratio of Ki): ~20 fold; Ki (hNOP): 2.76 ± 0.67 µM; EC50 (hDAT): > 1 µM; DOR Antag (%) (DOR [5]): 93.2%; DOR Ag (%) (DOR [5]): –1.1%; KOR Antag (%) (KOR [6]): 104.5%; MOR Antag (%) (MOR [7]): 96.9%; MOR Ag (%) (MOR [7]): 1.6%
CCOC(=O)[C@@]12C[C@@H]1[C@@H](n1ccc3c(NC4CC4)nc(C#Cc4ccccc4)nc31)[C@H](O)[C@@H]2O [compound 41, Ethyl(1S,2R,3S,4R,5S)-4-(4-(cyclopropylamino)-2-(phenylethynyl)-7H-pyrrolo[2,3-d]pyrimidin-7-yl)-2,3-dihydroxybicyclo[3.1.0]hexane-1-carboxylate] | 2.4 ± 0.09 | 2.11 ± 0.59 | – | 0.228 ± 0.115 | 0.852 ± 0.137 | –312% | 44 | TSPO, inhibition of radioligand binding at 10 μM (class) (rat kidney TSPO; Table 2): ^c (30–50% inhibition of radioligand binding at 10 μM); inhibition at 10 µM (hA2AAR): 25%
CCOC(=O)[C@@]12C[C@@H]1[C@@H](n1ccc3c(NC)nc(I)nc31)[C@H](O)[C@@H]2O [compound 39, Ethyl(1S,2R,3S,4R,5S)-2,3-dihydroxy-4-(2-iodo-4-(methylamino)-7H-pyrrolo[2,3-d]pyrimidin-7-yl)bicyclo[3.1.0]hexane-1-carboxylate] | 1.59 ± 0.28 | – | – | 0.39 ± 0.139 | 0.104 ± 0.035 | <10% | – | MOR, inhibition of radioligand binding at 10 μM (class) (MOR [3]): ^c (30–50% inhibition of radioligand binding at 10 μM); TSPO, inhibition of radioligand binding at 10 μM (class) (rat kidney TSPO; Table 2): ^d (<30% inhibition of radioligand binding at 10 μM); βarrestin2 recruitment, Imax (% 120) (KOR [4]; antagonism of 1 μM U69593 98): 77 ± 3 % 120
Oc1ccc2c3c1O[C@H]1c4[nH]c5c(c4C[C@@]4(O)[C@@H](C2)N(CC2CC2)CC[C@]314)C[C@@]1(O)[C@H]2Cc3ccc(O)c4c3[C@@]1(CCN2CC1CC1)[C@H]5O4 [compound 120, Norbinaltorphimine, reference compound] | – | – | – | – | – | – | – | βarrestin2 recruitment, Imax (% 120) (KOR [4]): 100 % 120
CCCCC(=O)[C@@]12C[C@@H]1[C@@H](n1ccc3c(NC)nc(C#Cc4ccc(Cl)s4)nc31)[C@H](O)[C@@H]2O [compound 44] | – | – | – | 0.098 ± 0.03 | 2.61 ± 0.66 | –9% | – | Ki (hNOP): > 10 µM; DOR Antag (%) (DOR [5]): 20.3%; DOR Ag (%) (DOR [5]): 6.7%; KOR Antag (%) (KOR [6]): 65.5%; MOR Antag (%) (MOR [7]): –44.4%; MOR Ag (%) (MOR [7]): 6.0%
CCCNc1nc(C#Cc2ccc(Cl)s2)nc2c1ncn2[C@H]1[C@H](O)[C@H](O)[C@]2(C(=O)NC)C[C@H]12 [compound 18] | – | – | 1.31 ± 0.21 | – | – | –159% | 22 | DOR, inhibition of radioligand binding at 10 μM (class) (DOR [1]; Table 1): ^e (30–50% inhibition of radioligand binding at 10 μM)
